Laboratory results published in patent US20160177395A1, “BIOMARKERS FOR THE PREDICTION OF RENAL INJURY” (priority 2007, published 2016).
Values joined by “and” are separate entries in the source; they are usually repeats but may differ in a detail not shown here. Identical values can stand only once.

System: kidney tissues of treated or untreated rats
Experiment: Real-time qRT-PCR of marker transcripts in kidney tissue panel, discovery stage (Table 22)
Format: in vivo, rat
Set-up: AI502869_DB71_seg0 normalized Real Time PCR expression: unit not given beside the values
Settings: listed as Cis
Experimental: Before RT preparation the RNA was treated with DNA-free (Ambion, cat. No. AM1906) DNase treatment and removal—according to manufacturer protocol. DNase procedure was repeated until no DNA is detected in a PCR reaction using the RNA samples.
The mixture is then incubated for 5 min at 65° C. and then quickly chilled on ice. Thereafter, 20 μl of 5× SuperscriptII first strand buffer (Invitrogen, Cat. No. Y00146), 9.6 μl 0.1M DTT (Invitrogen, Cat. No. Y00147) and 160 units RNasin (Promega, Cat. No. N251A) are added, and the mixture is incubated for 10 min at 25° C., followed by further incubation at 42° C. for 2 min. […] The resulting cDNA is diluted 1:20 in TE buffer (10 mM Tris pH=8, 1 mM EDTA pH=8).
cDNA (5 μl), prepared as described above, is used as a template in Real-Time PCR reactions using the SYBR Green I assay (PE Applied Biosystem) with specific primers in 100 nM concentration if not indicated otherwise and UNG Enzyme (Eurogentech or equal) Amplification is effected as follows: 50° C. for 2 min, 95° C. for 10 min, and then 40 cycles of 95° C. for 15 sec, followed by 60° C. for 1 min (if not indicated otherwise). Amplification step is followed by dissociation step. Detection is performed by using the PE Applied Biosystem SDS 7000. The cycle in which the reactions achieved a threshold level (Ct) of fluorescence is registered and is used to calculate the relative transcript quantity in the RT reactions. Non-detected samples are assigned Ct value of 41 and are calculated accordingly. The relative quantity is calculated using the equation Q=efficiencŷ-Ct. The efficiency of the PCR reaction is calculated from a standard curve, created by using serial dilutions of several reverse transcription (RT) reactions. To minimize inherent differences in the RT reaction, the resulting relative quantities are normalized to normalization factor calculated as follows: […]
The relative quantity (Q) of each housekeeping gene in each sample is calculated as described above. In order to calculate the “relative Q relative to MED” each Q for each HSKP gene is divided by the median quantity of this gene in all panel samples. To finally achieve the normalization factor of each sample the geometric mean of all four “relative Q relative to MED” was calculated. The normalization factor was then used for further calculations.
The markers of the present invention were tested with regard to their expression in a panel of kidney tissues samples from treated and control rats. Unless otherwise noted, all experimental data relates to the novel polynucleotides and proteins of the present invention, named according to the segment being tested (as expression was tested through RT-PCR as described). Tests were then performed as described in the “Materials and Experimental Procedures” section above.
The qRT-PCR measurements were normalized according to each samples normalization factor as described in “RT Preparation and Real-Time qRT-PCR Analysis” and further multiplied by a constant factor for ease of viewing.

[1] = rat kidney, day1, individual animals (F and M)
[2] = rat kidney, day1, individual animals

In the case of N.N.[Cl][Pt][Cl] [Cisplatin], the “normalized Real Time PCR MUSCYCG1R_DB81_seg19-20” value (kidney, female rats, day1) is reported as 0.86 and 0.81, the “normalized Real Time PCR RATRAB13X_DB81_seg15-17” value (kidney, female rats, day1) is reported as 0.82 and 1.11 and 1.1 and the “normalized Real Time PCR RATRAB13X_DB81_seg22” value (kidney, female rats, day1) is reported as 0.88 and 0.87 and 1.02. The “normalized Real Time PCR W33294_DB81_seg44” value (kidney, female rats, day1) was 1 and 0.95, the “normalized Real Time PCR MUSCYCG1R_DB81_seg19-20” value (kidney, female rats, day5) was 2.77 and 3.44 and 2.45 and the “normalized Real Time PCR RATRAB13X_DB81_seg15-17” value (kidney, female rats, day5) was 1.37 and 1.53. For the same molecule, the “normalized Real Time PCR RATRAB13X_DB81_seg22” value (kidney, female rats, day5) was 1.71 and 1.92 and 1.99, the “normalized Real Time PCR W33294_DB81_seg23” value (kidney, female rats, day5) was 2.03 and 1.99 and 1.58 and the “normalized Real Time PCR W33294_DB81_seg44” value (kidney, female rats, day5) was 2.31 and 2.19 and 2.15. For the same molecule, the “normalized Real Time PCR MMU09507_DB81_seg15” value (kidney, female rats, day28) was 8.1 and 6.58 and 5.53, the “normalized Real Time PCR MUSCYCG1R_DB81_seg19-20” value (kidney, female rats, day28) was 1.64 and 2.47 and 1.67 and the “normalized Real Time PCR RATRAB13X_DB81_seg15-17” value (kidney, female rats, day28) was 1.33. The “normalized Real Time PCR RATRAB13X_DB81_seg22” value (kidney, female rats, day28) was 0.61 and 0.65 and 0.89, the “normalized Real Time PCR W33294_DB81_seg23” value (kidney, female rats, day28) was 0.95 and 0.97 and 0.82 and the “normalized Real Time PCR MUSCYCG1R_DB81_seg19-20” value (kidney, male rats, day1) was 0.85 and 0.71 and 1.18. The “normalized Real Time PCR RATRAB13X_DB81_seg15-17” value (kidney, male rats, day1) was 0.73 and 0.84 and 0.98, the “normalized Real Time PCR RATRAB13X_DB81_seg22” value (kidney, male rats, day1) was 0.65 and 0.66 and 1.11 and the “normalized Real Time PCR W33294_DB81_seg23” value (kidney, male rats, day1) was 0.59 and 0.49 and 0.64. The “normalized Real Time PCR W33294_DB81_seg44” value (kidney, male rats, day1) was 0.6 and 0.84 and 0.96, the “normalized Real Time PCR MUSCYCG1R_DB81_seg19-20” value (kidney, male rats, day5) was 1.83 and 1.47 and 2.33 and the “normalized Real Time PCR RATRAB13X_DB81_seg15-17” value (kidney, male rats, day5) was 1.8 and 1.03 and 1.77. For the same molecule, the “normalized Real Time PCR RATRAB13X_DB81_seg22” value (kidney, male rats, day5) was 1.53 and 1.2, the “normalized Real Time PCR W33294_DB81_seg44” value (kidney, male rats, day5) was 1.47 and 1.51 and the “normalized Real Time PCR MUSCYCG1R_DB81_seg19-20” value (kidney, male rats, day28) was 2.13 and 1.97 and 2.21. The “normalized Real Time PCR RATRAB13X_DB81_seg15-17” value (kidney, male rats, day28) was 0.95, the “normalized Real Time PCR RATRAB13X_DB81_seg22” value (kidney, male rats, day28) was 0.66 and 0.76 and 0.65 and the “normalized Real Time PCR W33294_DB81_seg23” value (kidney, male rats, day28) was 0.95 and 0.82 and 0.88. The “normalized Real Time PCR W33294_DB81_seg44” value (kidney, male rats, day28) was 0.83 and 0.89, the “H33998_DB71_seg19 normalized Real Time PCR” value [1] was 0.85 and 1 and 0.87 and 0.65 and 0.75 and 1.14 and the “MUSCYCG1R_DB81_seg15-17 normalized Real Time PCR” value [1] was 0.77 and 0.85 and 0.72 and 0.54 and 0.35 and 0.67. The “RATLRFI_DB71_seg9 normalized Real Time PCR” value [1] was 1.49 and 0.3 and 0.57 and 0.24 and 0.2 and 0.37, the “RATRAB13X_DB71_seg11-13 normalized Real Time PCR” value [1] was 0.91 and 1.09 and 0.87 and 1.15 and the “RNU24174_DB71_seg8 normalized Real Time PCR” value [1] was 0.57 and 0.32 and 0.36 and 0.2 and 0.27 and 0.69. The “W41270_DB81_seg11 normalized Real Time PCR” value [1] was 1.11 and 0.86 and 0.76 and 0.33 and 0.63 and 0.71, the “W64472_DB81_seg2 normalized Real Time PCR” value [1] was 0.8 and 0.54 and 0.55 and 0.3 and 0.51 and 0.92 and the “W83813_DB81_seg27 normalized Real Time PCR” value [1] was 1.1 and 0.97 and 0.99 and 0.5 and 0.66 and 0.94. For the same molecule, the “AA686189_DB71_seg6 normalized Real Time PCR expression” value [2] was 0.7 and 0.44 and 0.66 and 0.48 and 0.42 and 0.68, the “AA799594_DB71_seg0 normalized Real Time PCR expression” value [2] was 0.39 and 0.98 and 0.59 and 0.99 and 0.87 and the “AA964541_DB71_seg0 normalized Real Time PCR expression” value [2] was 0.88 and 0.58 and 0.41 and 0.4 and 0.29 and 0.56. The “AI045075_DB71_seg6 normalized Real Time PCR expression” value [2] was 1.01 and 0.68 and 0.79 and 0.64 and 0.62 and 1.09, the “AI454051_DB71_seg0 normalized Real Time PCR expression” value [2] was 0.94 and 1.22 and 1 and 0.65 and 0.96 and 1.45 and the “AI502869_DB71_seg0 normalized Real Time PCR expression” value [2] was 0.67 and 0.78 and 0.74 and 0.87 (2×) and 0.84.
